Test results: US7994140B2, “Classes of compounds that interact with GPCRs” (Alchemia Limited, priority 2002, dated 2011)

Each molecule was assayed against T1, MC4 (Homo sapiens, UniProt P32245) (assay: GPCR radioligand binding (RLB) assay, melanocortin MC4, [125I]NDP-αMSH). Conditions: 4.0 Micromolar; Example Library 10.
T1 construct: purchased Perkin Elmer BioSignal; host or cells: HEK 293
Experimental: Recombinant human receptors expressed in HEK 293 cells were used for all experiments. Receptor membrane preparations were purchased from Perkin Elmer BioSignal. The labelled ligand used in somatostatin GPCR RLB assays was [^125I]SST-14 and in melanocortin assays was [^125I]NDP-αMSH. All assays were done in a 96-well plate format using either glass fiber filter mats or filter plates. All reagents purchased were of the highest quality.
Specific assay buffer, incubation and washing conditions were optimized for each receptor however they all followed the same general format. The procedures for both filter mat and filter plate formats are based on the receptor manufacturers recommendations or those described extensively in the literature. The procedures are briefly outlined below.
In assays where filter mats are used we incubate receptor membranes, assay buffer and [^125I] labelled ligand in 96 well microplates. Add compounds to incubation mixture and continue incubation for optimized period. Presoak Filter mat GF/B in 0.5% PEI for ˜2 hr at 4° C. On completion of assay mixture incubation add additional 100 μL/well of assay buffer immediately prior to filtration. Filter the assay mixture onto the GF/B filter mat using a cell harvester. Dry the filter mats prior to sealing them into a scintillation counting bag with scintillant. Radioactivity in each well is detected by liquid scintillation counting.
In assays where filter plates are used Multiscreen glass fiber filter plates (Millipore, Cat No MAFCNOB10) are precoated with 0.5% PEI for ˜2 hr at 4° C. All wells are then washed with 200 µl/well assay buffer and filtered using the Multiscreen Separation System. Subsequently receptor membranes, assay buffer and labelled ligands are added to the wells and equilibrated. Compounds for testing are then added to the mixture and incubation is continued for an optimized time. Plates are then put into the Multiscreen Separation System and the assay mixture is filtered through the plate under vacuum. Each well is then washed several times with assay buffer. Plates are then dried prior to putting sealing tape onto the bottom of the plate. Scintillant is added to each well and radioactivity measured by liquid scintillation counting.
Raw data was analysed according to standard methods using either GraphPad Prism software or IDDBS ActivityBase software.

T1 sequence (P32245 whole entry): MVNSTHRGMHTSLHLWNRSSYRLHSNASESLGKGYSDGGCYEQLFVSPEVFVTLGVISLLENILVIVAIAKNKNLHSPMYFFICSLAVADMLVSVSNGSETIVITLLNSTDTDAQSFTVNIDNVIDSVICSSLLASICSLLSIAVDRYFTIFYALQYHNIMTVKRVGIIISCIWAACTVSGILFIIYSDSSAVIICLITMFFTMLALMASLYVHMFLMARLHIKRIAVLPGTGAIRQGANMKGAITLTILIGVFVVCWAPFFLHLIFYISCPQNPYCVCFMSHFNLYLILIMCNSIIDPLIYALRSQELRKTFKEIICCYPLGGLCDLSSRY

Structure (SMILES)	MC4 Inhibition at 4.0 Micromolar
NCC(=O)N[C@H]1C(OCc2ccc3ccccc3c2)O[C@H](COCc2ccc3ccccc3c2)[C@@H](O)[C@@H]1OCc1ccc(Cl)cc1 (some centres unmarked) [Compound 350]	+ (Indicates inhibition greater than . . . 50%)
NCC(=O)N[C@H]1C(OCc2ccc3ccccc3c2)O[C@H](COCc2ccc3ccccc3c2)[C@@H](O)[C@@H]1OCc1ccc(Cl)cc1 (some centres unmarked) [Compound 351]	+ (Indicates inhibition greater than . . . 50%)
NCCC(=O)N[C@H]1C(OCc2ccc3ccccc3c2)O[C@H](COCc2ccccc2)[C@@H](O)[C@@H]1OCc1ccc(Cl)cc1 (some centres unmarked) [Compound 352]	+ (Indicates inhibition greater than . . . 50%)
NCCC(=O)N[C@H]1C(OCc2ccc3ccccc3c2)O[C@H](COCc2ccccc2)[C@@H](O)[C@@H]1OCc1ccc(Cl)cc1 (some centres unmarked) [Compound 353]	+ (Indicates inhibition greater than . . . 50%)
NCCC(=O)N[C@H]1C(OCc2ccc3ccccc3c2)O[C@H](COCc2ccc(Cl)cc2)[C@@H](O)[C@@H]1OCc1ccc(Cl)cc1 (some centres unmarked) [Compound 354]	+ (Indicates inhibition greater than . . . 50%)
NCCC(=O)N[C@H]1C(OCc2ccc3ccccc3c2)O[C@H](COCc2ccc(Cl)cc2)[C@@H](O)[C@@H]1OCc1ccc(Cl)cc1 (some centres unmarked) [Compound 355]	+ (Indicates inhibition greater than . . . 50%)
NCC(=O)N[C@H]1C(OCc2ccc3ccccc3c2)O[C@H](COCc2ccc3ccccc3c2)[C@@H](O)[C@@H]1OCc1ccc2ccccc2c1 (some centres unmarked) [Compound 356]	+ (Indicates inhibition greater than . . . 50%)
NCCC(=O)N[C@H]1C(OCc2ccc3ccccc3c2)O[C@H](COCc2ccc3ccccc3c2)[C@@H](O)[C@@H]1OCc1ccc2ccccc2c1 (some centres unmarked) [Compound 357]	+ (Indicates inhibition greater than . . . 50%)
NCCC(=O)N[C@H]1C(OCc2ccc3ccccc3c2)O[C@H](COCc2ccccc2)[C@@H](O)[C@@H]1OCc1ccc2ccccc2c1 (some centres unmarked) [Compound 358]	+ (Indicates inhibition greater than . . . 50%)
NCCC(=O)N[C@H]1C(OCc2ccc3ccccc3c2)O[C@H](COCc2ccc(Cl)cc2)[C@@H](O)[C@@H]1OCc1ccc2ccccc2c1 (some centres unmarked) [Compound 359]	+ (Indicates inhibition greater than . . . 50%)
NCCC(=O)N[C@H]1C(OCc2ccc3ccccc3c2)O[C@H](COCc2ccc(Cl)cc2)[C@@H](O)[C@@H]1OCc1ccc2ccccc2c1 (some centres unmarked) [Compound 360]	+ (Indicates inhibition greater than . . . 50%)
NCCC(=O)N[C@H]1C(OCc2ccc3ccccc3c2)O[C@H](COCc2ccc3ccccc3c2)[C@@H](O)[C@@H]1OCc1ccccc1 (some centres unmarked) [Compound 361]	+ (Indicates inhibition greater than . . . 50%)
NCC(=O)N[C@H]1C(OCc2ccc3ccccc3c2)O[C@H](COCc2ccc(Cl)cc2)[C@@H](O)[C@@H]1OCc1ccccc1 (some centres unmarked) [Compound 364]	+ (Indicates inhibition greater than . . . 50%)
NCCCC(=O)N[C@H]1C(OCc2ccc3ccccc3c2)O[C@H](COCc2ccc3ccccc3c2)[C@@H](O)[C@@H]1OCc1ccc2ccccc2c1 (some centres unmarked) [Compound 369]	+ (Indicates inhibition greater than . . . 50%)
NCCCC(=O)N[C@H]1C(OCc2ccc3ccccc3c2)O[C@H](COCc2ccccc2)[C@@H](O)[C@@H]1OCc1ccccc1 (some centres unmarked) [Compound 374]	+ (Indicates inhibition greater than . . . 50%)
NCCCC(=O)N[C@H]1C(OCc2ccc3ccccc3c2)O[C@H](COCc2ccc(Cl)cc2)[C@@H](O)[C@@H]1OCc1ccccc1 (some centres unmarked) [Compound 375]	+ (Indicates inhibition greater than . . . 50%)

Structure (SMILES)	MC4 Inhibition at 4.0 Micromolar
NCCC(=O)N[C@H]1C(OCc2ccc(Cl)cc2)O[C@H](COCc2ccccc2)[C@@H](O)[C@@H]1OCc1ccc(Cl)cc1 (some centres unmarked) [Compound 376]	+ (Indicates inhibition greater than . . . 50%)
NCCC(=O)N[C@H]1C(OCc2ccc(Cl)cc2)O[C@H](COCc2ccc(Cl)cc2)[C@@H](O)[C@@H]1OCc1ccc(Cl)cc1 (some centres unmarked) [Compound 377]	+ (Indicates inhibition greater than . . . 50%)
NCCC(=O)N[C@H]1C(OCc2ccc(Cl)cc2)O[C@H](COCc2ccc3ccccc3c2)[C@@H](O)[C@@H]1OCc1ccc2ccccc2c1 (some centres unmarked) [Compound 378]	+ (Indicates inhibition greater than . . . 50%)
NCCC(=O)N[C@H]1C(OCc2ccc(Cl)cc2)O[C@H](COCc2ccccc2)[C@@H](O)[C@@H]1OCc1ccc2ccccc2c1 (some centres unmarked) [Compound 379]	+ (Indicates inhibition greater than . . . 50%)
NCC(=O)N[C@H]1C(OCc2ccc(Cl)cc2)O[C@H](COCc2ccccc2)[C@@H](O)[C@@H]1OCc1ccc2ccccc2c1 (some centres unmarked) [Compound 380]	+ (Indicates inhibition greater than . . . 50%)
NCCC(=O)N[C@H]1C(OCc2ccc(Cl)cc2)O[C@H](COCc2ccc(Cl)cc2)[C@@H](O)[C@@H]1OCc1ccc2ccccc2c1 (some centres unmarked) [Compound 381]	+ (Indicates inhibition greater than . . . 50%)
NCC(=O)N[C@H]1C(OCc2ccc(Cl)cc2)O[C@H](COCc2ccc(Cl)cc2)[C@@H](O)[C@@H]1OCc1ccc2ccccc2c1 (some centres unmarked) [Compound 382]	+ (Indicates inhibition greater than . . . 50%)
NCCC(=O)N[C@H]1C(OCc2ccc(Cl)cc2)O[C@H](COCc2ccc3ccccc3c2)[C@@H](O)[C@@H]1OCc1ccccc1 (some centres unmarked) [Compound 383]	+ (Indicates inhibition greater than . . . 50%)
NCC(=O)N[C@H]1C(OCc2ccc(Cl)cc2)O[C@H](COCc2ccccc2)[C@@H](O)[C@@H]1OCc1ccccc1 (some centres unmarked) [Compound 384]	+ (Indicates inhibition greater than . . . 50%)
NCCC(=O)N[C@H]1C(OCc2ccc(Cl)cc2)O[C@H](COCc2ccc(Cl)cc2)[C@@H](O)[C@@H]1OCc1ccccc1 (some centres unmarked) [Compound 385]	+ (Indicates inhibition greater than . . . 50%)
NCCCC(=O)N[C@H]1C(OCc2ccc(Cl)cc2)O[C@H](COCc2ccc3ccccc3c2)[C@@H](O)[C@@H]1OCc1ccc(Cl)cc1 (some centres unmarked) [Compound 386]	+ (Indicates inhibition greater than . . . 50%)
NCCCC(=O)N[C@H]1C(OCc2ccc(Cl)cc2)O[C@H](COCc2ccccc2)[C@@H](O)[C@@H]1OCc1ccc(Cl)cc1 (some centres unmarked) [Compound 387]	+ (Indicates inhibition greater than . . . 50%)
NCCCC(=O)N[C@H]1C(OCc2ccc(Cl)cc2)O[C@H](COCc2ccc(Cl)cc2)[C@@H](O)[C@@H]1OCc1ccc(Cl)cc1 (some centres unmarked) [Compound 388]	+ (Indicates inhibition greater than . . . 50%)
NCCCC(=O)N[C@H]1C(OCc2ccc(Cl)cc2)O[C@H](COCc2ccc3ccccc3c2)[C@@H](O)[C@@H]1OCc1ccccc1 (some centres unmarked) [Compound 395]	+ (Indicates inhibition greater than . . . 50%)
NCCCC(=O)N[C@H]1C(OCc2ccc(Cl)cc2)O[C@H](COCc2ccc(Cl)cc2)[C@@H](O)[C@@H]1OCc1ccccc1 (some centres unmarked) [Compound 396]	+ (Indicates inhibition greater than . . . 50%)

Same assay, conditions: 4.0 Micromolar; Example Library 11

Structure (SMILES)	MC4 Inhibition at 4.0 Micromolar
NCCC(=O)NC1C(OCc2ccccc2)OC(COCc2ccc3ccccc3c2)C(O)C1OCc1ccc(Cl)cc1 (centres unmarked) [Compound 397]	+ (Indicates inhibition greater than . . . 50%)
NCCC(=O)NC1C(OCc2ccccc2)OC(COCc2ccccc2)C(O)C1OCc1ccc(Cl)cc1 (centres unmarked) [Compound 398]	+ (Indicates inhibition greater than . . . 50%)

Same assay, conditions: 4.0 micromolar compound

Structure (SMILES)	MC4 Inhibition at 4.0 Micromolar
COC1C(O)C(COCc2ccc3ccccc3c2)OC(OCc2ccc(Cl)cc2)C1NC(=O)C(N)CN (centres unmarked) [Compound 342]	+ (Indicates inhibition greater than . . . 50%)
COC1C(O)C(COCc2ccc3ccccc3c2)OC(OCc2ccc(Cl)cc2)C1NCC(=O)C1CCCN1 (centres unmarked) [Compound 343]	+ (Indicates inhibition greater than . . . 50%)
COC1C(O)C(COCc2ccc3ccccc3c2)OC(OCc2ccc(Cl)cc2)C1NC(=O)C1CCCN(C(=N)N)C1 (centres unmarked) [Compound 344]	+ (Indicates inhibition greater than . . . 50%)
COC1C(O)C(COCc2ccc3ccccc3c2)OC(OCc2ccc(Cl)cc2)C1NC(=O)CNC(=N)N (centres unmarked) [Compound 345]	+ (Indicates inhibition greater than . . . 50%)
COC1C(O)C(COCc2ccc3ccccc3c2)OC(OCc2ccc(Cl)cc2)C1NC(=O)C(N)CN (centres unmarked) [Compound 346]	+ (Indicates inhibition greater than . . . 50%)
COC1C(O)C(COCc2ccc3ccccc3c2)OC(OCc2ccc(Cl)cc2)C1NCC(=O)C1CCCN1 (centres unmarked) [Compound 347]	+ (Indicates inhibition greater than . . . 50%)
COC1C(O)C(COCc2ccc3ccccc3c2)OC(OCc2ccc(Cl)cc2)C1NC(=O)C1CCN(C(=N)N)CC1 (centres unmarked) [Compound 348]	+ (Indicates inhibition greater than . . . 50%)
COC1C(O)C(COCc2ccc3ccccc3c2)OC(OCc2ccc(Cl)cc2)C1NC(=O)CNC(=N)N (centres unmarked) [Compound 349]	+ (Indicates inhibition greater than . . . 50%)
